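Test compounds were applied to cells in 96-well plates for 48 hours at 5 doses. At the GI50, growth is halved.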 The source made the active and inactive calls. Rule as the data show it: active = GI50 up to about 1.1 µM and inactive = higher.

The record followed here is ChEMBL document CHEMBL1201862, “PubChem BioAssay data set” (2004).

Test systems include NCI-H23; A549; MDA-MB-231; NCI-H226; SNB-75; UACC-257; SK-MEL-2; NCI/ADR-RES; NCI-H522; HCC 2998; MDA-MB-435; RXF 393; SR; UO-31; KM12; MCF7; Malme-3M; SK-OV-3; MOLT-4.
Assay in all cases: NCI anticancer screen, dose series, 48 h

Turning to `N#CC(C#N)=C/C=C/c1c(Cl)cccc1Cl`, the GI50 was 1.47 µM (inactive) in the experiment with NCI-H23; 2.75 µM (inactive) in the experiment with A549; 1.85 µM (inactive) with MDA-MB-231; 2.45 µM (inactive) in the experiment with NCI-H226; 2.84 µM (inactive) in the experiment with SNB-75; 1.58 µM (inactive) in the experiment on UACC-257. The GI50 is 1.7 µM (inactive) in the experiment with SK-MEL-2; 1.96 µM (inactive) in the experiment with NCI/ADR-RES; 1.65 µM (inactive) in the experiment with NCI-H522; 1.84 µM (inactive) in the experiment on HCC 2998; 2.14 µM (inactive) with MDA-MB-435; 1.58 µM (inactive) in the experiment on RXF 393. Besides, the GI50 with SR was 1.7 µM (inactive); in the experiment with UO-31, 1.84 µM (inactive); in the experiment on KM12 it was 1.58 µM (inactive); with MCF7 it was 1.94 µM (inactive); in the experiment on Malme-3M, 1.73 µM (inactive); in the experiment on SK-OV-3 it was 2.56 µM (inactive). The GI50 in the experiment on MOLT-4 was 1.88 µM (inactive).
As for `COc1cc(C(=O)Oc2c(C(C)=O)sc3c2c(=O)n(-c2ccccc2)c(=S)n3-c2ccccc2)cc(OC)c1OC`, the GI50 with NCI-H23 is 20.2 µM (inactive); in the experiment on A549, 28.9 µM (inactive); with MDA-MB-231 it was 25.9 µM (inactive); in the experiment on NCI-H226, 3.86 µM (inactive); in the experiment on SNB-75, 19.8 µM (inactive); in the experiment on UACC-257 it was 28.1 µM (inactive). The GI50 in the experiment with NCI/ADR-RES is 15.4 µM (inactive); in the experiment on NCI-H522 it was 1.01 µM (active); with HCC 2998, 24.7 µM (inactive); with MDA-MB-435, 22.5 µM (inactive); in the experiment on RXF 393, 18.9 µM (inactive); in the experiment with SR it was > 100 µM (inactive). Moreover, the GI50 with KM12 is 22.8 µM (inactive); in the experiment on MCF7, 19.5 µM (inactive); with Malme-3M, 8.17 µM (inactive); in the experiment with SK-OV-3, 31.6 µM (inactive); with MOLT-4, 25 µM (inactive).
On to `C=C(C(N)=O)c1ccc([N+](=O)[O-])o1`, for which the GI50 in the experiment on NCI-H23 is 5.02 µM (inactive); in the experiment with A549 it was 15.1 µM (inactive); in the experiment with MDA-MB-231 it was 13.8 µM (inactive); with NCI-H226 it was 20.3 µM (inactive); in the experiment on SNB-75 it was 9.46 µM (inactive); in the experiment with UACC-257, 8.51 µM (inactive). Further, the GI50 in the experiment with SK-MEL-2 was 5.93 µM (inactive); with NCI/ADR-RES, 15.5 µM (inactive); with NCI-H522, 1.97 µM (inactive); in the experiment with HCC 2998, 16.7 µM (inactive); in the experiment on MDA-MB-435 it was 2.56 µM (inactive); in the experiment with RXF 393, 3.08 µM (inactive). Moreover, the GI50 in the experiment with SR was 9.46 µM (inactive); with KM12, 16.7 µM (inactive); with MCF7, 6.11 µM (inactive); in the experiment on Malme-3M, 2.2 µM (inactive); in the experiment with SK-OV-3, 30.8 µM (inactive); in the experiment with MOLT-4, 3.84 µM (inactive).
For the compound `C=C(C)C(O)CCC1(C)C=Cc2c(c(C)cc3c2[nH]c2ccccc23)O1` (configuration not stated), the GI50 in the experiment with NCI-H23 was 10.7 µM (inactive); in the experiment with A549 it was 7.4 µM (inactive); with MDA-MB-231, 3.49 µM (inactive); in the experiment on NCI-H226 it was 7.01 µM (inactive); with SNB-75, 3.3 µM (inactive); in the experiment on UACC-257 it was 8.17 µM (inactive). In addition, the GI50 with NCI/ADR-RES is 8.81 µM (inactive); in the experiment on NCI-H522, 4.91 µM (inactive); in the experiment on HCC 2998, 5.65 µM (inactive); in the experiment with MDA-MB-435 it was 8.41 µM (inactive); in the experiment with RXF 393, 0.245 µM (active); with SR, 8.47 µM (inactive). The GI50 is 6.87 µM (inactive) with UO-31; 5.85 µM (inactive) in the experiment with KM12; 12.3 µM (inactive) in the experiment with MCF7; 11.3 µM (inactive) with Malme-3M; 23.3 µM (inactive) in the experiment with SK-OV-3; 5.75 µM (inactive) in the experiment on MOLT-4.
`CC(C)CC(NC(=O)C(C)(CI)Cc1ccccc1)C(=O)Nc1ccccc1` (configuration not stated): the GI50 was > 100 µM (inactive) in the experiment on NCI-H23; > 100 µM (inactive) in the experiment with A549; > 100 µM (inactive) in the experiment on MDA-MB-231; > 100 µM (inactive) with NCI-H226; 86.5 µM (inactive) with SNB-75; > 100 µM (inactive) with UACC-257. In addition, the GI50 with SK-MEL-2, in the experiment on NCI/ADR-RES, in the experiment with NCI-H522, in the experiment on HCC 2998, in the experiment with MDA-MB-435 and in the experiment with RXF 393 was > 100 µM (inactive) in each case. Besides, the GI50 was 22.1 µM (inactive) in the experiment on SR; > 100 µM (inactive) in the experiment with UO-31; > 100 µM (inactive) with KM12; > 100 µM (inactive) with MCF7; > 100 µM (inactive) in the experiment on Malme-3M; > 100 µM (inactive) in the experiment with SK-OV-3. In the experiment on MOLT-4, the GI50 is 56.1 µM (inactive).
Consider `O=C(O)/C=C/c1ccc2c(c1)CC1(Cc3ccccc3C1)C2`, for which the GI50 is 57 µM (inactive) in the experiment on NCI-H23; 34.8 µM (inactive) in the experiment on A549; > 100 µM (inactive) with MDA-MB-231; 33.7 µM (inactive) in the experiment on NCI-H226; > 100 µM (inactive) in the experiment on UACC-257; 39.3 µM (inactive) in the experiment on SK-MEL-2. In addition, the GI50 with NCI/ADR-RES is 76.7 µM (inactive); in the experiment with NCI-H522 it was 54.5 µM (inactive); in the experiment on HCC 2998 it was 93.8 µM (inactive); in the experiment on MDA-MB-435, 80.5 µM (inactive); in the experiment with RXF 393 it was 94 µM (inactive); in the experiment with SR, 23.2 µM (inactive). Besides, the GI50 with UO-31 is 80 µM (inactive); with KM12 it was 55.8 µM (inactive); in the experiment with MCF7 it was 43.6 µM (inactive); in the experiment with Malme-3M it was 78.2 µM (inactive); with SK-OV-3 it was > 100 µM (inactive); in the experiment on MOLT-4, 29.5 µM (inactive).
As to `CC(O)CCCOC(c1ccccc1)(c1ccccc1)c1ccccc1` (configuration not stated), the GI50 in the experiment with NCI-H23 is 14.1 µM (inactive); with A549, 13.8 µM (inactive); with MDA-MB-231, 17.3 µM (inactive); with NCI-H226 it was 16.1 µM (inactive); in the experiment with SNB-75, 12.6 µM (inactive); with UACC-257 it was 16.3 µM (inactive). In addition, the GI50 is 15.1 µM (inactive) in the experiment on SK-MEL-2; 11.7 µM (inactive) with NCI/ADR-RES; 13.7 µM (inactive) in the experiment on NCI-H522; 15.3 µM (inactive) in the experiment on HCC 2998; 16.5 µM (inactive) in the experiment on MDA-MB-435; 14.7 µM (inactive) in the experiment with RXF 393. Moreover, the GI50 was 20.1 µM (inactive) in the experiment with SR; 13.7 µM (inactive) in the experiment with UO-31; 14.3 µM (inactive) with KM12; 14.7 µM (inactive) in the experiment with MCF7; 14.5 µM (inactive) in the experiment on Malme-3M; 16.6 µM (inactive) with SK-OV-3. Also, in the experiment with MOLT-4, the GI50 is 16.6 µM (inactive).
For the compound `OCCN(CCO)c1ccc2c(C(F)(F)F)cc(C(F)(F)F)nc2n1`, the GI50 was > 100 µM (inactive) in the experiment on NCI-H23; > 77.3 µM (inactive) in the experiment on A549; > 100 µM (inactive) in the experiment with MDA-MB-231; > 100 µM (inactive) with NCI-H226; > 100 µM (inactive) in the experiment with SNB-75; > 100 µM (inactive) in the experiment on UACC-257. Besides, the GI50 is > 100 µM (inactive) with SK-MEL-2; > 80.4 µM (inactive) with NCI/ADR-RES; > 100 µM (inactive) with NCI-H522; > 100 µM (inactive) with HCC 2998; > 100 µM (inactive) in the experiment on MDA-MB-435; > 100 µM (inactive) in the experiment on RXF 393. Moreover, the GI50 with SR, with UO-31, in the experiment on KM12, with MCF7, with Malme-3M and in the experiment with SK-OV-3 was > 100 µM (inactive) throughout. In addition, in the experiment on MOLT-4, the GI50 is > 100 µM (inactive).
